In PubChem BioAssay (NCI):
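Results reflect a 48-hour exposure of cells in 96-well plates to compound at five concentrations. The concentration for 50% growth inhibition is given as GI50. The concentration for full growth arrest is given as TGI.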

Assays:
Test in all cases: NCI anticancer screen, dose series, 48 h
[1] = system: HCT-15 colon
[2] = system: HOP-92 NSCLC
[3] = system: K-562 leukemia
[4] = system: NCI-H460 lung
[5] = system: RXF 393 renal
[6] = system: SF-539 CNS
[7] = system: SNB-19 CNS
[8] = system: TK-10 renal

Structure (SMILES) | GI50 [1] [µM] | TGI [1] [µM] | GI50 [2] [µM] | TGI [2] [µM] | GI50 [3] [µM] | TGI [3] [µM] | GI50 [4] [µM] | TGI [4] [µM] | GI50 [5] [µM] | TGI [5] [µM] | GI50 [6] [µM] | TGI [6] [µM] | GI50 [7] [µM] | TGI [7] [µM] | GI50 [8] [µM] | TGI [8] [µM]
COC(=O)[C@H](Cc1cn(C)cn1)NC(=O)[C@H](C)NC(=O)Nc1cc(C(F)(F)F)cc(C(F)(F)F)c1 | > 10 | > 10 | > 10 | > 10 | > 10 | > 10 | > 10 | > 10 | > 10 | > 10 | > 10 | > 10 | > 10 | > 10 | > 10 | > 10
Cc1cccc2c3c(sc12)C(c1ccc(F)cc1)C(C#N)=C(N)O3 (stereo not drawn) | 0.0447 | 10.7 | 1.07 | 8.26 | 0.0357 | > 100 | 0.0537 | 2.52 | 0.0271 | 0.0825 | 0.0473 | 0.679 | 0.081 | 12.2 | 5.51 | 23
CCC(C)C(=O)OCC(=O)c1ccc(-c2ccccc2)cc1 (stereo not drawn) |  | 43.3 |  | > 100 |  | > 100 |  | > 100 |  |  |  | > 100 |  | > 100 |  | > 100
CN(CCC(=O)/C(=C\c1ccccc1)c1ccc(Cl)cc1)Cc1ccccc1 | 2.42 | 7.05 | 2.55 | 6.16 | 2.16 | 13.1 | 3.18 | 11.2 | 1.86 | 3.69 | 2.74 | 6.88 | 3.92 | 19.1 | 2.34 | 5.43
NC(Cc1ccc2nc3c4ccccc4c(=O)cc-3oc2c1)C(=O)O (stereo not drawn) |  | > 100 |  | > 100 |  | > 100 |  | > 100 |  | > 100 |  | > 100 |  | > 100 |  | > 100
CC(=O)NC1=NC(=O)/C(=C/c2ccc(/C=C3/C(=O)N=C(NC(C)=O)N3C)cc2)N1C |  | > 100 |  | > 100 |  |  |  | > 100 |  | > 100 |  | > 100 |  | > 100 |  | > 100
CCCCCCNCc1cc(C(C)(C)C)cc(CNCCCCCC)c1O | 1.63 | 3.1 | 0.549 | 2.04 | 1.3 | 3.04 | 1.81 | 3.34 | 1.62 | 2.99 | 1.64 | 3.09 | 1.76 | 3.23 | 1.86 | 3.3
N#CC(C#N)=C/C=C(\Sc1ccc(F)cc1Cl)c1ccc(Cl)cc1 | 0.425 | 1.58 |  |  | 0.432 | > 100 | 0.763 | 4.82 | 2.94 | > 100 | 0.391 | 3.59 | 4.54 | 23.6 | 0.5 | 2.08
COc1ccc(-c2csc(NC(=O)CN3CCN(c4cc5c(cc4F)c(=O)c(C(=O)O)cn5C4CC4)CC3)n2)cc1 | 3.23 | > 100 | 2.82 | 7.17 |  |  | 3.18 | > 100 | 4.97 | 27.7 | 3.61 | > 100 | 4.1 | > 100 | 4.62 | 22.9
Cl.Fc1c[c-]c(-c2ccccn2)c(F)c1.[Pt].c1ccc([PH+](C[PH+](c2ccccc2)c2ccccc2)c2ccccc2)cc1 |  |  | 0.155 | 0.48 | 0.0483 | 0.573 |  |  | 0.251 | 0.741 | 0.244 | 0.677 | 0.343 | 1.32 | 0.274 | 1.43
COc1ccc(C(=O)c2sc3nc(-c4cccs4)ccc3c2N)cc1OC | 2.81 | > 100 |  |  | 2.1 | > 100 | 3.88 | > 100 | 9.98 | > 100 | 5.32 | > 100 | > 100 | > 100 |  | 
CC(C)(C)N/N=C(\C(=O)NC1=C(Cl)C(=O)c2ccccc2C1=O)C1C=CCS1(=O)=O (stereo not drawn) |  | 22.9 |  | 33 |  | > 100 |  | 22 |  |  |  | 54.2 |  | > 100 |  | > 100
CC(=O)/C=C/c1ccc(OCc2ccc(Cl)cc2)cc1 | 498 | > 1000 | 372 | > 1000 |  |  | 529 | > 1000 | 568 | > 1000 | > 1000 | > 1000 | > 1000 | > 1000 | 827 | > 1000
O=C1N(Cc2ccccc2Cl)c2ccccc2C12NN=C(c1cccc(Cl)c1)S2 (stereo not drawn) | 1.9 | 4.19 | 1.74 | 3.17 | 2.21 | 5.39 | 1.42 | 3.32 | 1.76 | 3.4 |  |  | 1.75 | 3.32 | 1.77 | 3.15
CCCCNc1ccc(Nc2ccccc2)cc1 | 21.3 | > 100 | 3.42 | 32.5 | 2.45 | 12 | 4.61 | 43 |  |  | 11.8 | 57.3 | 5.19 | > 100 | 4.27 | 56.3
Cc1ccc(-n2nnnc2-c2cnc(N3CCOCC3)nc2-c2cccc(C(F)(F)F)c2)cc1 | 3 | 8.57 |  |  | 1.96 | > 22.6 | 2 | > 22.4 | 1.99 | > 14.5 | 1.16 | 2.72 | 2.21 | > 32.8 | 1.54 | 4.56
COc1cc(Cl)cc(-c2nn(-c3cccc(NC(=O)Nc4ccc(Cl)c(Cl)c4)c3)cc2-c2ccncc2)c1 | 2.51 | 31.5 |  |  | 1.96 | > 100 | 2.27 | 13.9 | 1.96 | 7.25 | 2.6 | 13.2 | 3.51 | > 100 |  | 
